# Source: ChEMBL document CHEMBL5365431 (J Med Chem, 2023)
# Calls of active or inactive are those of the source. The calls are words filed in the database; no cut-off is given here.
# Assays:
# CAPAN-1 [1] = assay: Antitumor activity against human Talazoparib-resistant CAPAN-1 cells xenografted in BALB/c mouse assessed as tumor growth inhibition by measuring T/C ratio at 25 mg/kg,po QD for 21 days relative to control; type: functional; parameters: scale not given: the % may be the effect or the level left; details: time 21 day
# Mus musculus [2] = species on record: Mus musculus; details: BALB/c, dose 12.5-25 mg/kg, route po, time 21.0 day
# WI-38 = assay: Antiproliferative activity against human WI-38 cells assessed as cell proliferation inhibition incubated for 7 days by SRB assay; type: functional, cell-based
# [3] = Stabilization of human His-tagged PARP1-DNA complex assessed as increase in fluorescence signal incubated for 60 mins using NAD+ as substrate by DSB fluorescence polarization assay
# [4] = Antiproliferative activity against human Olaparib-resistant MDA-MB-436 cells assessed as cell proliferation inhibition incubated for 7 days by CCK-8 assay; type: functional, cell-based
# [5] = molecular target: Poly [ADP-ribose] polymerase 1 (Homo sapiens, UniProt P09874); assay: Inhibition of PARP1 (unknown origin) using histone as substrate by ELISA
# Sequence of Poly [ADP-ribose] polymerase 1 (P09874 whole entry): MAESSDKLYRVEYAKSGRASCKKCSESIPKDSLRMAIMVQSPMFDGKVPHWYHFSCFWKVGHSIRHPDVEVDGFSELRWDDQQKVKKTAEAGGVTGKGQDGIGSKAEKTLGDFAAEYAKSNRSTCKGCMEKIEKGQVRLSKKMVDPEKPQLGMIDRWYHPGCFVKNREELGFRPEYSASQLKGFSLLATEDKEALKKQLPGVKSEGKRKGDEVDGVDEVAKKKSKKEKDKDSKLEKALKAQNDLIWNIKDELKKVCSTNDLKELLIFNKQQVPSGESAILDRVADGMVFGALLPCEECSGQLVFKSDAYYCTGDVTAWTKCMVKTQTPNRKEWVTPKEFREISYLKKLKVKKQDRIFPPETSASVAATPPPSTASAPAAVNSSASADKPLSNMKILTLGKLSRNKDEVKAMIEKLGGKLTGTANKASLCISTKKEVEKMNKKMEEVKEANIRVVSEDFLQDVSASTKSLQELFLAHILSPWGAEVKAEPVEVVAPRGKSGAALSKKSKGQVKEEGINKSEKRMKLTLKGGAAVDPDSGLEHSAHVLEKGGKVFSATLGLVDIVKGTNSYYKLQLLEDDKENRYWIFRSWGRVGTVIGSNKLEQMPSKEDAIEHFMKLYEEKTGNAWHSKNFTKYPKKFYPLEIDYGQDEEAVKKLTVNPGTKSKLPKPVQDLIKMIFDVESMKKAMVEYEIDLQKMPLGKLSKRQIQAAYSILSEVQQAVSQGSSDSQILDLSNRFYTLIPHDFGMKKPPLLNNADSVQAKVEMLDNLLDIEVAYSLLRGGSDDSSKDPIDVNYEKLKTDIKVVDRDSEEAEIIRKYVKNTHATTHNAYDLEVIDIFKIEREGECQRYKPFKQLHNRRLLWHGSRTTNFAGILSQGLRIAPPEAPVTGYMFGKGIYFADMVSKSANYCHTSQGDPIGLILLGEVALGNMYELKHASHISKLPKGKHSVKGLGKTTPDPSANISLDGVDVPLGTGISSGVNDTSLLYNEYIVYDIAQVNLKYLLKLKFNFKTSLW
# [6] = molecular target: Protein mono-ADP-ribosyltransferase PARP4 (Homo sapiens, UniProt Q9UKK3); assay: Inhibition of PARP4 (unknown origin) using biotinylated NAD+ as substrate by luminescence assay
# Sequence of Protein mono-ADP-ribosyltransferase PARP4 (Q9UKK3 whole entry): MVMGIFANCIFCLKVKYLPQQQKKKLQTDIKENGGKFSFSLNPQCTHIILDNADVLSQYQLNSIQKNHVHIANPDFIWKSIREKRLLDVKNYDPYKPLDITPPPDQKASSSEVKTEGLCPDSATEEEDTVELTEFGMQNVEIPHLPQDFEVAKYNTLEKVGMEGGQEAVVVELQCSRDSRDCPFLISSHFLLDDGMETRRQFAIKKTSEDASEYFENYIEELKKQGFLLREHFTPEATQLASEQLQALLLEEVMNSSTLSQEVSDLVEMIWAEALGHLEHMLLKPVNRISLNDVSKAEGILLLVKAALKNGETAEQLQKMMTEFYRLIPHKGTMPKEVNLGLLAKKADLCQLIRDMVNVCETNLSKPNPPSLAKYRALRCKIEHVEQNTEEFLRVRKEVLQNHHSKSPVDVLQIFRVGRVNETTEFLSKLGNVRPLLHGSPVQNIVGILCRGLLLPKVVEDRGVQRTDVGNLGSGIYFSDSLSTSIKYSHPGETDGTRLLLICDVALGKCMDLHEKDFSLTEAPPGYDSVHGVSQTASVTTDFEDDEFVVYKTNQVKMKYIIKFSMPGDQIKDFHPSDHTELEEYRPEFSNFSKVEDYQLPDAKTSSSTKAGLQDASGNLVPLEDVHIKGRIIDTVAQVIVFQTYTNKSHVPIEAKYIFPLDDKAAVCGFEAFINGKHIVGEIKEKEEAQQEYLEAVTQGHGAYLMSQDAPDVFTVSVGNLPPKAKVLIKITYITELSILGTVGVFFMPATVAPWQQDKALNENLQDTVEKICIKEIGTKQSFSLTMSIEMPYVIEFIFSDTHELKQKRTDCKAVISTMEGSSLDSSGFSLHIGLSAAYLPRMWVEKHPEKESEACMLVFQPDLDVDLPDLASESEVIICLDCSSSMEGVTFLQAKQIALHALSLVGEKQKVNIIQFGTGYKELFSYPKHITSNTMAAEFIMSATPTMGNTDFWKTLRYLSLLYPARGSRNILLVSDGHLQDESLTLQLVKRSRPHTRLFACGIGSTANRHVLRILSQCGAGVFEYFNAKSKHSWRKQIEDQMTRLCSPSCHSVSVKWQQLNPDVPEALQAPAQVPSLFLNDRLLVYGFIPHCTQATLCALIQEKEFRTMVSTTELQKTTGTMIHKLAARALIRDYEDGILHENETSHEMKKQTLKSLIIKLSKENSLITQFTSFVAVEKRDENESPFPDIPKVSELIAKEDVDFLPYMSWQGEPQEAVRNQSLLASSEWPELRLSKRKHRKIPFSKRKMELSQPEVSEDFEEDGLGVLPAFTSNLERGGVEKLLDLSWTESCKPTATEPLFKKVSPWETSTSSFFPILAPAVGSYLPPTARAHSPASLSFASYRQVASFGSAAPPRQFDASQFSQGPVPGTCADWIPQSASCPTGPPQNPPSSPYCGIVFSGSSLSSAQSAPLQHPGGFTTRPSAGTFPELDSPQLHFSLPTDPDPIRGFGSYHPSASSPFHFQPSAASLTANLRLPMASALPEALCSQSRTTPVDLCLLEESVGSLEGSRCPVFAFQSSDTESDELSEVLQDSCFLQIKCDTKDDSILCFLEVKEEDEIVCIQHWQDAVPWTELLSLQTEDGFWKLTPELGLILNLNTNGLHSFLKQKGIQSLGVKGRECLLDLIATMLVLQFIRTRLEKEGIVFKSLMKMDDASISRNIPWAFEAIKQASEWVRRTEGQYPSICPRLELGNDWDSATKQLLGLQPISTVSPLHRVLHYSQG
# [7] = molecular target: Protein mono-ADP-ribosyltransferase PARP12 (Homo sapiens, UniProt Q9H0J9); assay: Inhibition of PARP12 (unknown origin) using biotinylated NAD+ as substrate by luminescence assay
# [8] = molecular target: Protein mono-ADP-ribosyltransferase PARP14 (Homo sapiens, UniProt Q460N5); assay: Inhibition of PARP14 (unknown origin) using biotinylated NAD+ as substrate by luminescence assay
# [9] = Antiproliferative activity against human Talazoparib-resistant MDA-MB-436 cells assessed as cell proliferation inhibition incubated for 7 days by CCK-8 assay; type: functional, cell-based, Talazoparib-resistant MDA-MB-436 cell
# [10] = molecular target: Protein mono-ADP-ribosyltransferase PARP15 (Homo sapiens, UniProt Q460N3); assay: Inhibition of PARP15 (unknown origin) using biotinylated NAD+ as substrate by luminescence assay
# [11] = molecular target: Poly [ADP-ribose] polymerase tankyrase-2 (Homo sapiens, UniProt Q9H2K2); assay: Inhibition of PARP5B (unknown origin) using biotinylated NAD+ as substrate by luminescence assay
# Sequence of Poly [ADP-ribose] polymerase tankyrase-2 (Q9H2K2 whole entry): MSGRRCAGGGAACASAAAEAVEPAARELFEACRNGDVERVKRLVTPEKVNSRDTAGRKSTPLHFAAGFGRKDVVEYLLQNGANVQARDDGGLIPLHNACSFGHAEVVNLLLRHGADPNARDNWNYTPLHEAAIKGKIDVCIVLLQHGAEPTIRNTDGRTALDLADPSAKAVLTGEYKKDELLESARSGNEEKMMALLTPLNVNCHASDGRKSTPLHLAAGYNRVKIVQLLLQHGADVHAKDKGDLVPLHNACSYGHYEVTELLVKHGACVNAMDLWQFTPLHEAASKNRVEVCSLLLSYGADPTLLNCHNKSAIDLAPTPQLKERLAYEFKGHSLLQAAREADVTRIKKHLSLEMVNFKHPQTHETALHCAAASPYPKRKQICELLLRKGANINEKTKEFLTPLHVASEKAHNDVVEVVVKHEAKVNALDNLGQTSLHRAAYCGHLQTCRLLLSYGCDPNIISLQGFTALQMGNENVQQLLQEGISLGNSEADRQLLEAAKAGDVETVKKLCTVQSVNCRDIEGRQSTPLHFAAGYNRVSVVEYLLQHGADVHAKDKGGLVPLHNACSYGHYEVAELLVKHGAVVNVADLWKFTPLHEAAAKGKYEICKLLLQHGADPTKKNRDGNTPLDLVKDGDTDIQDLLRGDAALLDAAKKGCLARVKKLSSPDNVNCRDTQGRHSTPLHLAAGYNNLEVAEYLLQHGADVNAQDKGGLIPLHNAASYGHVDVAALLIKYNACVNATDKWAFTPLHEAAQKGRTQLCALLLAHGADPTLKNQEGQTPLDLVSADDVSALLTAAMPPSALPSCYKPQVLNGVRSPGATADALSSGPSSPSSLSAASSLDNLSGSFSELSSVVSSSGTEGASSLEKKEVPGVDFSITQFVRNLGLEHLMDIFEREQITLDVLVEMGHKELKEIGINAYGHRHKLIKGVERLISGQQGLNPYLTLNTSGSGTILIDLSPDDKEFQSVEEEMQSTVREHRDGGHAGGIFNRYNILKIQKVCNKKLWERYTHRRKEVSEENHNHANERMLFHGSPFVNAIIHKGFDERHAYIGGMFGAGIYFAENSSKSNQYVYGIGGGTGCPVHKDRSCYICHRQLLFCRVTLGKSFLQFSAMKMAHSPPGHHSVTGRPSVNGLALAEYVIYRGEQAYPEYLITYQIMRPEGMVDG
# [12] = Selectivity index, ratio of IC50 for antiproliferative activity against human UWB1289 cells harboring wild type BRCA1 to IC50 for antiproliferative activity against HR-deficient human UWB1289 cells harboring BRCA1 mutant; type: functional
# [13] = Antiproliferative activity against HR-deficient human UWB1289 cells harboring BRCA1 mutant assessed as cell proliferation inhibition incubated for 7 days by SRB assay; type: functional, cell-based
# MDA-MB-436 = assay: Antiproliferative activity against HR-deficient human MDA-MB-436 cells harboring BRCA1 mutant assessed as cell proliferation inhibition incubated for 7 days by SRB assay; type: functional, cell-based
# CAPAN-1 [14] = assay: Antitumor activity against human Talazoparib-resistant CAPAN-1 cells xenografted in BALB/c mouse assessed as tumor growth inhibition by measuring T/C ratio at 12.5 mg/kg,po QD for 21 days relative to control; type: functional; parameters: scale not given: the % may be the effect or the level left; details: time 21 day
# HCT-15 = assay: Antiproliferative activity against HR-deficient human HCT-15 cells harboring BRCA2 mutant assessed as cell proliferation inhibition incubated for 7 days by SRB assay; type: functional, cell-based
# [15] = molecular target: Protein mono-ADP-ribosyltransferase PARP6 (Homo sapiens, UniProt Q2NL67); assay: Inhibition of PARP6 (unknown origin) using biotinylated NAD+ as substrate by luminescence assay
# [16] = Antitumor activity against human Olaparib-resistant MDA-MB-436 cells xenografted in BALB/c mouse assessed as tumor growth inhibition by measuring T/C ratio at 12.5 mg/kg,po QD for 27 days relative to control; type: functional; parameters: scale not given: the % may be the effect or the level left; details: time 27 day
# [17] = Antiproliferative activity against Chinese hamster V-C8 cells harboring BRCA2 mutant assessed as cell proliferation inhibition incubated for 7 days by SRB assay; type: functional, cell-based; details: Cricetulus griseus
# IMR-90 = assay: Antiproliferative activity against human IMR-90 cells assessed as cell proliferation inhibition incubated for 7 days by SRB assay; type: functional, cell-based
# CAPAN-1 [18] = details: Homo sapiens, dose 10.0 nM, time 4.5 hrs
# Mus musculus [19] = species on record: Mus musculus; details: BALB/c, dose 12.5-25 mg/kg, route po, time 21.0 day; remark: listed apart in the source
# HCC1937 = assay: Antiproliferative activity against HR-deficient human HCC1937 cells harboring BRCA1 mutant assessed as cell proliferation inhibition incubated for 7 days by SRB assay; type: functional, cell-based
# [20] = molecular target: Poly [ADP-ribose] polymerase tankyrase-1 (Homo sapiens, UniProt O95271)
# [21] = molecular target: Poly [ADP-ribose] polymerase 2 (Homo sapiens, UniProt Q9UGN5); assay: Inhibition of PARP2 (unknown origin) using histone as substrate by ELISA
# Sequence of Poly [ADP-ribose] polymerase 2 (Q9UGN5 whole entry): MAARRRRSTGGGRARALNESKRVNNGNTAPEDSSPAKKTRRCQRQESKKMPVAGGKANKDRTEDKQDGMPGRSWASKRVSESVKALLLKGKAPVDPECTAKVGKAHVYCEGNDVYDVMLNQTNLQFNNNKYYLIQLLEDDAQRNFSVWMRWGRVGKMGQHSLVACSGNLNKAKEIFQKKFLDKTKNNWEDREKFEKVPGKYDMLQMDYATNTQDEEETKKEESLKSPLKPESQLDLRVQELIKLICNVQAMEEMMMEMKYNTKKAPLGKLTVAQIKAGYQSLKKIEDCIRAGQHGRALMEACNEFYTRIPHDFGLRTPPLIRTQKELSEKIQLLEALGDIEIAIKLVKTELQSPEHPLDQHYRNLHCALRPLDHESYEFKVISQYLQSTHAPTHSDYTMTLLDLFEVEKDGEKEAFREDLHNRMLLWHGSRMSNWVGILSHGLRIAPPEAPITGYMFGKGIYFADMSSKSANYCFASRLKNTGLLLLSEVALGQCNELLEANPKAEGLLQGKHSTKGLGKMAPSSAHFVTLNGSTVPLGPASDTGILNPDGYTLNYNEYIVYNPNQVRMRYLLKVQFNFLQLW
# [22] = Half life in Sprague-Dawley rat at 5 mg/kg, iv and measured upto 24 hrs; type: ADME, organism-based; details: in vivo
# CAPAN-1 [23] = assay: Antiproliferative activity against human CAPAN-1 cells assessed as cell proliferation inhibition incubated for 7 days by SRB assay; type: functional, cell-based
# [24] = Antiproliferative activity against human UWB1289 cells harboring wild type BRCA1 assessed as cell proliferation inhibition incubated for 7 days by SRB assay; type: functional, cell-based
# U-251 = assay: Antiproliferative activity against human Talazoparib-resistant U-251 cells assessed as cell proliferation inhibition incubated for 7 days by SRB assay; type: functional, cell-based
# [25] = molecular target: Protein mono-ADP-ribosyltransferase TIPARP (Homo sapiens, UniProt Q7Z3E1); assay: Inhibition of PARP7 (unknown origin) using biotinylated NAD+ as substrate by luminescence assay
# CAPAN-1 [26] = details: Homo sapiens, dose 10.0 nM, time 4.5 hrs; remark: listed apart in the source
# [27] = molecular target: Protein mono-ADP-ribosyltransferase PARP10 (Homo sapiens, UniProt Q53GL7); assay: Inhibition of PARP10 (unknown origin) using biotinylated NAD+ as substrate by luminescence assay
# CAPAN-1 [28] = assay: Antiproliferative activity against human Talazoparib-resistant CAPAN-1 cells assessed as cell proliferation inhibition incubated for 7 days by SRB assay; type: functional, cell-based
# [29] = Clearance in Sprague-Dawley rat at 5 mg/kg, iv and measured upto 24 hrs; type: ADME, organism-based; details: in vivo
# U2OS [30] = assay: Inhibition of homologous recombination repair activity in human PARP1 knockout U2OS cells expressing direct repeat-GFP reporter gene transfected with pCBA-ISceI plasmid at 1 uM incubated for 48 hrs by flow cytometry; type: functional
# [31] = Antitumor activity against human Olaparib-resistant MDA-MB-436 cells xenografted in BALB/c mouse assessed as tumor growth inhibition by measuring T/C ratio at 25 mg/kg,po QD for 27 days relative to control; type: functional; parameters: scale not given: the % may be the effect or the level left; details: time 27 day
# [32] = Antiproliferative activity against human Olaparib-resistant U-251 cells assessed as cell proliferation inhibition incubated for 7 days by SRB assay; type: functional, cell-based
# [33] = Antiproliferative activity against human Olaparib-resistant CAPAN-1 cells assessed as cell proliferation inhibition incubated for 7 days by SRB assay; type: functional, cell-based
# Mus musculus [34] = species on record: Mus musculus; details: BALB/c, dose 12.5-25 mg/kg, route po, time 21.0 day; remark: listed apart in the source
# [35] = molecular target: Protein mono-ADP-ribosyltransferase PARP11 (Homo sapiens, UniProt Q9NR21); assay: Inhibition of PARP11 (unknown origin) using biotinylated NAD+ as substrate by luminescence assay
# U2OS [36] = assay: Inhibition of homologous recombination repair activity in human U2OS cells expressing direct repeat-GFP reporter gene transfected with pCBA-ISceI plasmid at 1 uM incubated for 48 hrs by flow cytometry; type: functional
# V79 = assay: Antiproliferative activity against Chinese hamster V79 cells harboring wild type BRCA2 assessed as cell proliferation inhibition incubated for 7 days by SRB assay; type: functional, cell-based; details: Cricetulus griseus
# [37] = molecular target: Protein mono-ADP-ribosyltransferase PARP3 (Homo sapiens, UniProt Q9Y6F1); assay: Inhibition of PARP3 (unknown origin) using biotinylated NAD+ as substrate by luminescence assay
# Sequence of Protein mono-ADP-ribosyltransferase PARP3 (Q9Y6F1 whole entry): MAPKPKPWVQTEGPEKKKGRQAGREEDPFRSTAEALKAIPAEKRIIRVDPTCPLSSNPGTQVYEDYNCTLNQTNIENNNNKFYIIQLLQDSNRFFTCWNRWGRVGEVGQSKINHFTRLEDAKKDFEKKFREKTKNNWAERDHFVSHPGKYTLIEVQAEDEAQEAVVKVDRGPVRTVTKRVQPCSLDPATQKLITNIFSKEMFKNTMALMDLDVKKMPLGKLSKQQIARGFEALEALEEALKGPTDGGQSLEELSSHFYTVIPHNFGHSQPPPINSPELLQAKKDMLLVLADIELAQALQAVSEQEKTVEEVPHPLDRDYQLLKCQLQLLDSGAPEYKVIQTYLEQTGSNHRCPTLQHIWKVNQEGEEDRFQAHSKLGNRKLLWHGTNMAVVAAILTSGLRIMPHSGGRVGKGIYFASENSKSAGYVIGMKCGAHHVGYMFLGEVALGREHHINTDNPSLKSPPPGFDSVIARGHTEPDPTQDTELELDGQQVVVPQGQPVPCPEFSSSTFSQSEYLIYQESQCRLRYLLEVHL
# [38] = Toxicity in BALB/c mouse xenografted with human Olaparib-resistant MDA-MB-436 cells assessed as body weight at 12.5 to 25 mg/kg,po QD for 27 days; type: organism-based; details: in vivo, 648 h, dose 12.5-25 mg/kg, time 27 day
# [39] = Selectivity index, ratio of IC50 for antiproliferative activity against human PARP1 knockout Talazoparib-resistant CAPAN-1 cells to IC50 for antiproliferative activity against human Talazoparib-resistant CAPAN-1 cells; type: functional
# [40] = Selectivity index, ratio of IC50 for antiproliferative activity against Chinese hamster V79 cells harboring wild type BRCA2 to IC50 for antiproliferative activity against Chinese hamster V-C8 cells harboring BRCA2 mutant; type: functional, Cricetulus griseus
smiles,measurement,setting,value
O=C(c1cc(Cc2n[nH]c(=O)c3ccccc23)ccc1F)N1CCn2c(nnc2-c2ccc(Br)o2)C1,Activity,CAPAN-1 [1],13.87%
same,inhibition,Mus musculus [2],Active
same,IC50,WI-38,530 nM
same,EC50,[3],5.55 nM
same,IC50,[4],1.97 nM
same,IC50,[5],< 0.001 nM
same,IC50,[6],1 nM
same,IC50,[7],14.1 nM
same,IC50,[8],35900 nM
same,IC50,[9],1.97 nM
same,IC50,[10],51600 nM
same,IC50,[11],12.4 nM
same,Ratio IC50,[12],17
same,IC50,[13],0.02 nM
same,IC50,MDA-MB-436,0.52 nM
same,Activity,CAPAN-1 [14],48.92%
same,IC50,HCT-15,44.2 nM
same,IC50,[15],9.5 nM
same,Activity,[16],36.74%
same,IC50,[17],1.19 nM
same,IC50,IMR-90,1240 nM
same,inhibition,CAPAN-1 [18],Active
same,inhibition,Mus musculus [19],Active
same,IC50,HCC1937,4.54 nM
same,IC50,[20],3.8 nM
same,IC50,[21],0.001 nM
same,half-life,[22],3.25 h
same,IC50,CAPAN-1 [23],0.1 nM
same,IC50,[24],0.34 nM
same,IC50,U-251,1.97 nM
same,IC50,[25],7.3 nM
same,inhibition,CAPAN-1 [26],Active
same,IC50,[27],10.8 nM
same,IC50,CAPAN-1 [28],1.13 nM
same,clearance,[29],24.5 mL/min/kg
same,inhibition (INH),U2OS [30],50%
same,Activity,[31],15.29%
same,IC50,[32],1.97 nM
same,IC50,[33],0.89 nM
same,inhibition,Mus musculus [34],Active
same,IC50,[35],2170 nM
same,inhibition (INH),U2OS [36],95%
same,IC50,V79,29.3 nM
same,IC50,[37],1.1 nM
same,Activity,[38],Non-Toxic
same,Ratio IC50,[39],19
same,Ratio IC50,[40],25
